Common to all, as to assay: ≥ marks a high value that may be exact or a test limit, other limits are often not marked, values filed in µg/mL are converted to µM
For experiment [1], the system named is Salmonella typhimurium KCTC 1926.
The subject of experiment [2] is Escherichia coli CCARM 1238.
In experiment [3] the test system is Staphylococcus aureus ATCC 25923.
The test system of experiment [4] is Salmonella typhimurium CCARM 8013.
The subject of experiment [5] is Listeria monocytogenes KCTC 3710.
Experiment [6] has as its system Salmonella typhimurium CCARM 8009.
The test system of experiment [7] is Pseudomonas aeruginosa 3592.
Experiment [8] has as its system Pseudomonas aeruginosa ATCC 27853.
The test system of experiment [9] is Staphylococcus aureus CCARM 3114.
For experiment [10], the system named is Enterococcus faecalis FA1.
The subject of experiment [11] is Escherichia coli ATCC 12014.
For experiment [12], the system named is Salmonella enterica subsp. enterica serovar Typhimurium ATCC BAA-215.
In experiment [13] the test system is Listeria monocytogenes ATCC 15313.
For experiment [14], the system named is Pseudomonas aeruginosa ATCC 10145.
Experiment [15] has as its system Bacillus subtilis ATCC 11774.
Experiment [16] relates to Escherichia coli C25.
For experiment [17], the system named is Porphyromonas gingivalis ATCC 33277.
Experiment [18] deals with Vibrio anguillarum.
For experiment [19], the system named is Salmonella enterica subsp. enterica serovar Paratyphi A.
The subject of experiment [20] is Candida albicans.
In experiment [21] the test system is Escherichia coli ATCC 25922.
Experiment [22] concerns Pseudomonas aeruginosa.
The test system of experiment [23] is Staphylococcus epidermidis.
The subject of experiment [24] is Candida glabrata 1.
Experiment [25] has as its system Aspicilia cinerea.
Experiment [26] concerns Escherichia coli.
Experiment [27] concerns Acinetobacter baumannii.
The subject of experiment [28] is Staphylococcus aureus 4.
In experiment [29] the test system is Vibrio cholerae.
Experiment [30] relates to Vibrio harveyi.
Experiment [31] concerns Vibrio parahaemolyticus.
Experiment [32] has as its system Nocardia asteroides.
For experiment [33], the system named is Proteus vulgaris.
For experiment [34], the system named is Enterococcus faecium.
Experiment [35] relates to Klebsiella pneumoniae.
Experiment [36] relates to Stenotrophomonas maltophilia.
Experiment [37] has as its system Proteus mirabilis.
The test system of experiment [38] is Aeromonas veronii.
The test system of experiment [39] is Escherichia coli 1.
The test system of experiment [40] is Candida glabrata.
In experiment [41] the test system is Aeromonas sobria.
Experiment [42] concerns Klebsiella oxytoca.
Experiment [43] relates to Aeromonas hydrophila.
The subject of experiment [44] is Bacillus subtilis.
Experiment [45] concerns Staphylococcus aureus.
Experiment [46] concerns Staphylococcus aureus 1.
Experiment [47] concerns Bacillus cereus.
In experiment [48] the test system is Stenotrophomonas maltophilia 2.
In experiment [49] the test system is Shigella dysenteriae.
In experiment [50] the test system is Enterococcus faecalis.
The subject of experiment [51] is Staphylococcus aureus NBRC 13276.
The test system of experiment [52] is Escherichia coli NBRC 3972.
Experiment [53] deals with Pseudomonas aeruginosa NBRC 13275.

Values after ≈ are worked out from the molar mass of the structure shown. Values joined by “and” are separate entries in the source; they are usually repeats but may differ in a detail not shown here. Identical values can stand only once. A value given as a limit tells only on which side of the number the result lay.

As for `CC[C@H](C)[C@H](NC(=O)[C@H](Cc1c[nH]c2ccccc12)NC(=O)[C@H](CCCCN)NC(=O)[C@@H](NC(=O)[C@@H](N)CCCCN)[C@@H](C)CC)C(=O)N[C@@H](CC(C)C)C(=O)N[C@@H](CCCCN)C(=O)N[C@@H](Cc1ccc(O)cc1)C(=O)N[C@@H](Cc1c[nH]c2ccccc12)C(=O)N[C@@H](CCCCN)C(=O)N[C@@H](Cc1c[nH]c2ccccc12)C(=O)N[C@@H](CO)C(=O)O` [KIKWILKYWKWS], the minimal inhibitory concentration (MIC) was 2 µM (≈ 3.36 µg/mL) in [1]; 4 µM and 8 µM in experiment [2]; 0.25 µM (≈ 0.42 µg/mL) in [3]; 16 µM and ≥ 32 µM in [4]; 4 µM (≈ 6.72 µg/mL) in experiment [5]; 8 µM (≈ 13.4 µg/mL) in experiment [6]. For the same compound, the minimal inhibitory concentration (MIC) in experiment [7] was 8 µM and 16 µM; in experiment [8], 4 µM and 8 µM; in experiment [9], 16 µM and ≥ 32 µM.
As for `CC[C@H](C)[C@H](NC(=O)CNC(=O)[C@H](CCCN=C(N)N)NC(=O)[C@H](Cc1ccc(O)cc1)NC(=O)[C@@H](NC(=O)[C@H](CCCN=C(N)N)NC(=O)[C@H](Cc1ccccc1)NC(=O)[C@H](Cc1c[nH]c2ccccc12)NC(=O)[C@@H](N)CCCCN)C(C)C)C(=O)N[C@@H](Cc1ccc(O)cc1)C(=O)N[C@@H](CCCN=C(N)N)C(=O)N[C@@H](CCCN=C(N)N)C(=O)N[C@@H](CCCN=C(N)N)C(N)=O` [KWFRVYRGIYRRR], the MIC in experiment [10] is no less than 53.9 µM; in [11] it was 3.37 µM (≈ 6.25 µg/mL); in [3] it was 14 µM (≈ 26 µg/mL); in experiment [12] it was 6.73 µM (≈ 12.5 µg/mL); in [13], 6.73 µM (≈ 12.5 µg/mL); in experiment [14] it was 6.73 µM (≈ 12.5 µg/mL). Also, the values for the MIC in experiment [15], in experiment [16] and in experiment [17] were no less than 108 µM, 7.1 µM (≈ 13.2 µg/mL) and 1.68 µM (≈ 3.12 µg/mL), respectively.
With `CC[C@H](C)[C@H](NC(=O)CNC(=O)[C@H](Cc1c[nH]c2ccccc12)NC(=O)CNC(=O)[C@H](C)NC(=O)[C@H](C)NC(=O)[C@H](CCCCN)NC(=O)[C@H](CC(C)C)NC(=O)CNC(=O)CNC(=O)[C@H](CCCN=C(N)N)NC(=O)[C@H](CC(C)C)NC(=O)[C@H](CC(C)C)NC(=O)[C@H](Cc1c[nH]c2ccccc12)NC(=O)[C@H](CC(C)C)NC(=O)[C@H](Cc1c[nH]c2ccccc12)NC(=O)[C@H](CCCN=C(N)N)NC(=O)[C@@H](N)[C@@H](C)O)C(=O)N[C@@H](CCCN=C(N)N)C(=O)N[C@@H](C)C(=O)N[C@@H](Cc1cnc[nH]1)C(=O)N[C@@H](CC(C)C)C(=O)N[C@@H](CC(N)=O)C(=O)N[C@@H](CCCN=C(N)N)C(=O)N[C@@H](CC(N)=O)C(=O)N[C@@H](CCC(N)=O)C(=O)O` [TRWLWLLRGGLKAAGWGIRAHLNRNQ], the minimum inhibitory concentration (MIC) in [18] was 6.16 µM (≈ 18.8 µg/mL); in [19] it was 12.3 µM (≈ 37.5 µg/mL); in experiment [20], greater than 65.7 µM; in experiment [21] it was 3.08 µM (≈ 9.38 µg/mL); in [22], 6.16 µM (≈ 18.8 µg/mL); in experiment [23], no less than 65.7 µM. Moreover, the MIC in experiment [24] is no less than 65.7 µM; in experiment [25] it was no less than 65.7 µM; in [26] it was 4.36 µM (≈ 13.3 µg/mL); in experiment [27] it was no less than 65.7 µM; in experiment [28] it was 3.08 µM (≈ 9.38 µg/mL); in experiment [29], 12.3 µM (≈ 37.5 µg/mL). In addition, the minimal inhibitory concentration (MIC) was 12.3 µM (≈ 37.5 µg/mL) in experiment [30]; 12.3 µM (≈ 37.5 µg/mL) in [31]; greater than 65.7 µM in experiment [3]; 6.16 µM (≈ 18.8 µg/mL) in experiment [32]; no less than 65.7 µM in experiment [33]; no less than 65.7 µM in experiment [34]. Also, the MIC in [35] was 3.08 µM (≈ 9.38 µg/mL); in [36] it was no less than 65.7 µM; in experiment [37], 3.08 µM (≈ 9.38 µg/mL); in [38], 24.6 µM (≈ 75 µg/mL); in experiment [39] it was 1.54 µM (≈ 4.69 µg/mL); in [40], 12.3 µM (≈ 37.5 µg/mL). Further, the MIC in [41] is 12.3 µM (≈ 37.5 µg/mL); in experiment [42] it was no less than 65.7 µM; in experiment [43], 12.3 µM (≈ 37.5 µg/mL); in experiment [44], 3.08 µM (≈ 9.38 µg/mL); in experiment [45], 12.3 µM (≈ 37.5 µg/mL); in experiment [8] it was 12.3 µM (≈ 37.5 µg/mL). Further, the minimum inhibitory concentration (MIC) was no less than 65.7 µM in [46]; no less than 65.7 µM in [47]; 6.16 µM (≈ 18.8 µg/mL) in experiment [48]; 12.3 µM (≈ 37.5 µg/mL) in [49]; no less than 65.7 µM in [50].
For `CC(=O)N[C@@H](CCCCN)C(=O)N[C@@H](CCCCN)C(=O)N[C@@H](C)C(=O)N[C@@H](CCCCN)C(=O)N[C@@H](CCCCN)C(=O)N[C@@H](C)C(=O)N[C@@H](CCCCN)C(=O)N[C@@H](CCCCN)C(=O)N[C@@H](C)C(N)=O` [KKAKKAKKA], the MIC in experiment [51], in [52] and in experiment [53] was no less than 800 µM throughout.

(Values after DBAASP.)
